Data taken from article PMC11354392, “Molecular Characteristics of the Malate Dehydrogenase (MDH) Gene Family in Spirometra mansoni (Cestoda: Diphyllobothriidea)” (International Journal of Molecular Sciences, 2024).

Experiments:
rSmMDH1 [1] = test system: T1, rSmMDH1; assay: absorbance […] nm, Lineweaver-Burk; assay type: biochemical, Spirometra mansoni; conditions: apparent
T1 construct: gene SmMDH1

rSmMDH1 [2] = biological target: T1, rSmMDH1; assay: absorbance […] nm, Lineweaver-Burk secondary plot of […]/Vmax; assay type: biochemical, Spirometra mansoni; conditions: forward reaction (oxaloacetate reduction, NADH); 100 mM Tris-HCl pH 7.5, 37 °C; reversible, binds enzyme-substrate complex

With NC(=O)C1=CN([C@@H]2O[C@H](COP(=O)(O)OP(=O)(O)OC[C@H]3O[C@@H](n4cnc5c(N)ncnc54)[C@H](O)[C@@H]3O)[C@@H](O)[C@H]2O)C=CC1 [NADH] the Km (rSmMDH1 [1]; forward reaction, oxaloacetate co-substrate, 100 mM Tris-HCl pH 7.5, 37 °C) was 1750 µM.

In the case of NC(=O)c1ccc[n+]([C@@H]2O[C@H](COP(=O)(O)OP(=O)(O)OC[C@H]3O[C@@H](n4cnc5c(N)ncnc54)[C@H](O)[C@@H]3O)[C@@H](O)[C@H]2O)c1 [NAD], the Km (rSmMDH1 [1]; reverse reaction, malic acid co-substrate (methods print lactate), 100 mM Tris-HCl pH 8.6, 37 °C) is reported as 1950 µM.

O=C(O)C[C@H](O)C(=O)O [malic acid] showed a Km (rSmMDH1 [1]; reverse reaction, NAD co-substrate, 100 mM Tris-HCl pH 8.6, 37 °C) of 1190 µM.

Compound O=C(O)CC(=O)C(=O)O [oxaloacetic acid] has a Km (rSmMDH1 [1]; forward reaction, NADH co-substrate, 100 mM Tris-HCl pH 7.5, 37 °C, tested 1-10 mM) of 63500 µM.

NC(=S)c1cccnc1 [thionicotinamide] was tested, and the Ki (rSmMDH1 [2]) was 144 µM.
